What was measured:
[1] = tested on: COc1cc(/C=N/Nc2nnc3n2N=C(c2ccccc2)CS3)cc(OC)c1O; test: Mixed-type inhibition of Saccharomyces cerevisiae alpha-glucosidase using nitrophenol-alpha-D-glucopyranoside (pNPG) as substrate assessed as Vmax at 24 to 48 uM measured after 15 mins by Lineweaver-Burk plot analysis; format: protein assay; settings: dose 24-48 µM
Alpha-glucosidase = Alpha-glucosidase (Saccharomyces cerevisiae S288c, UniProt P53341+P38158+P07265); test: Inhibition of Saccharomyces cerevisiae alpha-glucosidase using nitrophenol-alpha-D-glucopyranoside (pNPG) as substrate incubated for 15 mins; format: protein assay

Sequence of Alpha-glucosidase (Saccharomyces cerevisiae S288c) (P07265 whole entry, looked up): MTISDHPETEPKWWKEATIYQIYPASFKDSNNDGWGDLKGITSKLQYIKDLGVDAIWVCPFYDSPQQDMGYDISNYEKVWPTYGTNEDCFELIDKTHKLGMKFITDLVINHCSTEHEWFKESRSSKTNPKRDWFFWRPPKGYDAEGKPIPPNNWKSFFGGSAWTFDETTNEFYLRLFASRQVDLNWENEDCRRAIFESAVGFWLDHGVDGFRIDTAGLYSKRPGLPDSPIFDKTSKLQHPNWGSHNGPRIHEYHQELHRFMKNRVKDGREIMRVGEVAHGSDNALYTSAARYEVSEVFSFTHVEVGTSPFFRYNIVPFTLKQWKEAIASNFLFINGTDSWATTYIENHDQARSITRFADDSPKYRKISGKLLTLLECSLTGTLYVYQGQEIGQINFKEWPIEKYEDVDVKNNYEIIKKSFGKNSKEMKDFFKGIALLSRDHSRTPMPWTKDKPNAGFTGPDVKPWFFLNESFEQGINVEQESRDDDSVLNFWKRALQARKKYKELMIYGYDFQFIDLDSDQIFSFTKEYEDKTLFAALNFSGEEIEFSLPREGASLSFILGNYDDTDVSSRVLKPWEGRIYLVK
Sequence of Alpha-glucosidase (Saccharomyces cerevisiae S288c) (P38158 whole entry, looked up): as the sequence (P07265 whole entry, looked up) above, with R273T, V305L counted along it
Sequence of Alpha-glucosidase (Saccharomyces cerevisiae S288c) (P53341 whole entry, looked up): as the sequence (P07265 whole entry, looked up) above, with R273T, F467L counted along it

Row | IC50 (Alpha-glucosidase) | Compound | Vmax [1]
1 | – | Alpha-glucosidase (Saccharomyces cerevisiae S288c) (from UniProt P53341+P38158+P07265) | 0.07 µM/L.min
2 | > 250 µM | Fc1ccccc1/C=N/Nc1nnc2n1N=C(c1ccccc1)CS2 | –
3 | 32.96 µM | Oc1ccc(/C=N/Nc2nnc3n2N=C(c2ccccc2)CS3)c(O)c1 | –
4 | 35.58 µM | CN(C)c1ccc(/C=N/Nc2nnc3n2N=C(c2ccccc2)CS3)cc1 | –

— ChEMBL document CHEMBL5634160, “Synthesis, biological evaluation and action mechanism of 7H-[1,2,4] triazolo [3,4-b] [1,3,4] thiadiazine-phenylhydrazone derivatives as α-glucosidase inhibitors” (Eur J Med Chem, 2023)
